# From patent US11918589B2, “Medicament for treatment of multiple sclerosis” (NIPPON CHEMIPHAR CO., LTD., priority 2016, dated 2024)
# Columns and labels:
# EAE model animals = settings: reported in the literature; cited from earlier work
# EAE model rats [1] = assay: Preventive repetitive oral administration to EAE model rats, pain threshold (von Frey, up-down method), symptoms (EAE score), weight; type: in vivo, rat; settings: orally twice a day 10 mg/kg over 22 days from Day 0, von Frey 50% pain threshold, FIG. 3
# Protocol: (§1) EAE model rats were prepared by the same method as that of Example 2. […] For symptom observation, behaviors of the animals allowed to freely act were scored in accordance with the criteria shown in Table 111. The pain threshold was measured after the animals were put into a cage for measurement of which floor is made of a wire gauze, and acclimatized in the environment for 20 minutes or longer. The measurement of the pain threshold was performed according to the method of Chaplan et al. using 7 of von Frey filaments giving different stimulation intensities, and the 50% pain threshold was calculated by the up-down method of Dixon.
# EAE model rats [2] = assay: Therapeutic repetitive oral administration to EAE model rats, pain threshold; type: in vivo, rat; settings: orally twice a day 10 mg/kg over 21 days from Day 10 (average EAE score 2 or larger), FIG. 4
# Protocol: as §1
# EAE model rats were prepared by the same method as that of Example 2.
# EAE model rats [3] = assay: Preventive continuous administration into the subarachnoid cavity of EAE model rats, pain threshold; type: in vivo, rat; settings: preventive continuous administration into the subarachnoid cavity 10 nmol/5 μL/hr for about 14 days, FIG. 5
# Protocol: A polystyrene catheter having an external diameter of 0.30 mm was detained in the subarachnoid cavity in each of 10 weeks old LEW/CrlCrlj female rats. After about one week from the detainment of the catheter for administration in the subarachnoid cavity, EAE model rats were prepared by the same method as that of Example 2.
smiles,measurement,setting,value
CN1CC[C@]23c4c5ccc(O)c4O[C@H]2[C@@H](O)C=C[C@H]3[C@H]1C5 [morphine],analgesic action in allodynia observed in the EAE model,EAE model animals,markedly decreases
"O=C1CC(=O)N(c2ccc(NC(=O)c3ccccc3I)cc2)c2ccc3ccccc3c2N1 [compound A, 5-[4-(2-iodobenzoyl)aminophenyl]-1H-naphtho[1,2-b][1,4]diazepine-2,4(3H,5H)-dione]",influence on the pain threshold (mechanical allodynia induced by EAE),EAE model rats [1],continuously suppressed mechanical allodynia induced by EAE
same,influence on the pain threshold (mechanical allodynia induced by EAE),EAE model rats [2],suppressed mechanical allodynia induced by EAE
"O=C1CC(=O)N(c2cccc(-c3nnn[nH]3)c2)c2ccc3ccccc3c2N1.[Na] [compound B, 5-[3-(1H-tetrazol-5-yl)phenyl]-1H-naphtho[1,2-b][1,4]diazepine-2,4(3H,5H)-dione sodium salt]",influence on the pain threshold (mechanical allodynia induced by EAE),EAE model rats [3],suppressed mechanical allodynia induced by EAE
